Source: US6943183B2 (Pfizer Inc, priority 2000, dated 2005)

Molecular target: T1, SF9 affinity purified rat FPT (Rattus norvegicus, UniProt Q02293+Q04631)
T1 construct: made in house; host or cells: Sf9 insect cells
Assay: PFT (FPT) inhibitory activity assay, radiolabeled farnesyl pyrophosphate and biotinyl peptide, streptavidin beads
Format: biochemical
Conditions: HEPES buffer pH 7.4, 30° C., 30 minutes; read-out: FTase IC50
Method: The PFT or FPT inhibitory activity of compounds of the present invention were assayed in HEPES buffer (pH 7.4) containing 5 mM potassium phosphate and 20 μM ZnCl2. The solution also contained 5 mM DTT (dithiothreitol), 5 mM MgCl2, and 0.1% PEG 8000. Assays were performed in 96 well plates (Wallec) and employed solutions composed of varying concentrations of a compound of the present invention in 10% DMSO (dimethylsulfoxide). […] After incubation at 30° C. for 30 minutes, the reaction was terminated by diluting the reaction 2.5-fold with a stop buffer containing 1.5 M magnesium acetate, 0.2 M H3PO4, 0.5% BSA (bovine serum albumin), and strepavidin beads (Amersham) at a concentration of 1.3 mg/mL. […] The assay was also carried out without 5 mM potassium phosphate.

SMILES | IC50
O=C1CCCc2c1ccc(O[C@H](Cn1ccnc1)c1ccccc1)c2CNS(=O)(=O)c1ccc2ccccc2c1 [Compound 42f, Naphthalene-2-sulfonic acid [2-((S)-2-imidazol-1-yl-1-phenyl-ethoxy)-5-oxo-5,6,7,8-tetrahydro-naphthalen-1-ylmethyl]-amide; compound with trifluoro-acetic acid] | 4 nM
O=C1CCCc2c1ccc(O[C@H](Cn1ccnc1)c1ccccc1)c2CNS(=O)(=O)Cc1ccccc1 [Compound 42g] | 1.5 nM
O=C(NCc1c(O[C@H](Cn2ccnc2)c2ccccc2)ccc2c1CCCC2=O)c1ccccn1 [Compound 42h, Pyridine-2-carboxylic acid [2-((S)-2-imidazol-1-yl-1-phenyl-ethoxy)-5-oxo-5,6,7,8-tetrahydro-naphthalen-1-ylmethyl]-amide] | 8 nM
O=C(NCc1c(O[C@H](Cn2ccnc2)c2ccccc2)ccc2c1CCCC2=O)c1ccccc1 [Compound 42i, N-[2-((S)-2-Imidazol-1-yl-1-phenyl-ethoxy)-5-oxo-5,6,7,8-tetrahydro-naphthalen-1-ylmethyl]-benzamide] | 1.5 nM
CSCC[C@H](NC(=O)OC(C)(C)C)C(=O)NCc1c(O[C@H](Cn2ccnc2)c2ccccc2)ccc2c1CCCC2=O [Compound 42j, ((S)-1-{[2-((S)-2-Imidazol-1-yl-1-phenyl-ethoxy)-5-oxo-5,6,7,8-tetrahydro-napthalen-1-ylmethyl]-carbamoyl}-3-methylsulfanyl-propyl)-carbamic acid tert-butyl ester] | 4.4 nM
CSCC[C@H](N)C(=O)NCc1c(O[C@H](Cn2ccnc2)c2ccccc2)ccc2c1CCCC2=O [Compound 42k, (S)-2-Amino-N-[2-((S)-2-imidazol-1-yl-1-phenyl-ethoxy)-5-oxo-5,6,7,8-tetrahydro-naphthalen-1-ylmethyl]-4-methylsulfanyl-butyramide] | 16 nM
O=C1CCCc2c1ccc(O[C@H](Cn1ccnc1)c1ccccc1)c2CN1C(=O)c2ccccc2C1=O [Compound 43, 2-{[2-((1S)-2-imidazolyl-1-phenylethoxy)-5-oxo-6,7,8-trihydronaphenyl]methyl}isoindoline-1,3-dione] | 1.7 nM
O=C1CCCc2c1ccc(O[C@H](Cn1ccnc1)c1ccccc1)c2CCc1ccsc1 [Compound 44a, 6-((S)-2-Imidazol-1-yl-1-phenyl-ethoxy)-5-(2-thiophen-3-yl-ethyl)-3,4-dihydro-2H-naphthalen-1-one] | 0.87 nM
O=C1CCCc2c1ccc(O[C@H](Cn1ccnc1)c1ccccc1)c2CCCc1ccccc1 [Compound 44b, 6-((S)-2-Imidazol-1-yl-1-phenyl-ethoxy)-5-(3-phenyl-propyl)-3,4-dihydro-2H-naphthalen-1-one] | 3.1 nM
O=C1CCCc2c1ccc(O[C@H](Cn1ccnc1)c1ccccc1)c2Cc1ccccc1 [Compound 45, 6-((1S)-2-imidazolyl-1-phenylethoxy)-5-benzyl-2,3,4-trihydro-naphthalen-one] | 2 nM
O=C1CCCc2c1ccc(O[C@H](Cn1ccnc1)c1ccccc1)c2Oc1ccccc1 [Compound 46, 6-((1S)-2-imidazolyl-1-phenylethoxy)-5-phenoxy-2,3,4-trihydronaphthalen-1-one] | 37 nM
O=C1CCC(c2cccc(Cl)c2)c2cc(O[C@H](Cn3ccnc3)c3ccccc3)ccc21 (stereo partly drawn) [Compound 47, 6-((1S)-2-Imidazolyl-1-phenylethoxy)-4-(3-chlorophenyl)-2,3,4-trihydronaphthalen-1-one] | 2 nM
CCCc1c(OC(Cn2ccnc2)c2ccccc2)ccc2c1CCCC2=O (stereo not shown) [Compound 50, 6-(2-Imidazolyl-1-phenylethoxy)-5-propyl-2,3,4-trihydro-naphthalen-1-one] | 8 nM
C=CCc1c(O[C@H](Cn2ccnc2)c2ccccc2)ccc2c1CCCC2=O [Compound 51, 6-((1S)-2-Imidazolyl-1-phenylethoxy)-5-prop-2-enyl-2,3,4-trihydronaphthalen-1-one] | 3 nM
CCCc1c(O[C@H](Cn2ccnc2)c2ccccc2)ccc2c1CCCC2=O [Compound 53] | 5 nM
C=C(C)Cc1c(O[C@H](Cn2ccnc2)c2ccccc2)ccc2c1CCCC2=O [Compound 54, 6-((1S)-2-Imidazolyl-1-phenylethoxy)-5-(2-methylprop-2-enyl)-2,3,4-trihydronaphthalen-1-one] | 5 nM
CC(C)Cc1c(O[C@H](Cn2ccnc2)c2ccccc2)ccc2c1CCCC2=O [Compound 55, 6-((1S)-2-Imidazolyl-1-phenylethoxy)-5-(2-methylpropyl)-2,3,4-trihydronaphthalen-1-one] | 1 nM
C=CCc1c(O[C@H](Cn2ccnc2)c2ccccc2)ccc2c1CCC2=O [Compound 56] | 15 nM
CC(C)(Cn1ccnc1)Oc1ccc2c(c1CCc1ccccc1)CCCC2=O [Compound 58a, 6-[2-(1H-Imidazol-1-yl)-1,1-dimethylethoxy]-5-(2-phenylethyl)-3,4-dihydro-1(2H)-naphthalenone] | 1.6 nM
CCCc1c(S[C@H](Cn2ccnc2)c2ccccc2)ccc2c1CCCC2=O [Compound 62, 6-((1S)-2-imidazolyl-1-phenylethylthio)-5-propyl-2,3,4-trihydronaphthalen-1-one] | 10 nM
O=C1CCCc2c1ccc(S[C@H](Cn1ccnc1)c1ccccc1)c2CCc1ccccc1 [Compound 63] | 0.2 nM
COCc1c(O[C@H](Cn2ccnc2)c2ccccc2)ccc2c1CCCC2=O [Compound 64] | 11 nM
COc1ccc(OCc2c(O[C@H](Cn3ccnc3)c3ccccc3)ccc3c2CCCC3=O)cc1 [Compound 65] | 0.4 nM

Further lines, results first:

IC50 | SMILES
0.94 nM | CC(C)S(=O)(=O)Cc1c(O[C@H](Cn2ccnc2)c2cccnc2)ccc2c1CCCC2=O [Compound 63b, 6-((S)-2-Imidazol-1-yl-1-pyridin-3-yl-ethoxy)-5-(propane-2-sulfonylmethyl)-3,4-dihydro-2H-napthalen-1-one]
0.16 nM | O=C1CCCc2c1ccc(O[C@H](Cn1ccnc1)c1cccnc1)c2CS(=O)(=O)c1ccccn1 [Compound 63ba, 6-((S)-2-Imidazol-1-yl-1-pyridin-3-yl-ethoxy)-5-(pyridin-2-ylsulfonylmethyl)-3,4-dihydro-2H-napthalen-1-one]
0.3 nM | O=C1CCCc2c1ccc(O[C@H](Cn1ccnc1)c1cccnc1)c2CCc1ccccn1 [Compound 63c]
0.17 nM | O=C1CCCc2c1ccc(O[C@H](Cn1ccnc1)c1cccnc1)c2NC(=O)c1nccc2ccccc12 [Compound 63d, Isoquinoline-1-carboxylic acid [2-((S)-2-imidazol-1-yl-1-pyridin-3-yl-ethoxy)-5-oxo-5,6,7,8-tetrahydro-naphthalen-1-yl]-amide]
9.7 nM | O=C(Nc1c(O[C@H](Cn2ccnc2)c2cccnc2)ccc2c1CCCC2=O)c1cnccn1 [Compound 63e, Pyrazine-2-carboxylic acid [2-((S)-2-imidazol-1-yl-1-pyridin-3-yl-ethoxy)-5-oxo-5,6,7,8-tetrahydro-naphthalen-1-yl]-amide]
13 nM | O=C1CCCc2c1ccc(O[C@H](Cn1ccnc1)c1cccnc1)c2NC(=O)c1cnnc2ccccc12 [Compound 63f, Cinnoline-4-carboxylic acid [2-((S)-2-imidazol-1-yl-1-pyridin-3-yl-ethoxy)-5-oxo-5,6,7,8-tetrahydro-naphthalen-1-yl]-amide]
9.5 nM | CC(C)[C@@H](Cn1ccnc1)Oc1ccc2c(c1CS(=O)(=O)C(C)C)CCCC2=O [Compound 63g, 6-((S)-1-Imidazol-1-ylmethyl-2-methyl-propoxy)-5-(propane-2-sulfonylmethyl)-3,4-dihydro-2H-napthalen-1-one]
2.5 nM | CC(C)[C@@H](Cn1ccnc1)Oc1ccc2c(c1NC(=O)c1nccc3ccccc13)CCCC2=O [Compound 63h, Isoquinoline-1-carboxylic acid [2-((S)-1-imidazol-1-ylmethyl-2-methyl-propoxy)-5-oxo-5,6,7,8-tetrahydro-naphthalen-1-yl]-amide]
1.5 nM | O=C1CCCc2c1ccc(O[C@H](Cn1ccnc1)c1ccc(F)cc1F)c2CS(=O)(=O)c1ccccn1 [Compound 63j, (S)-6-[-1-(2,4-Difluoro-phenyl)-2-imidazol-1-yl-1-ethoxy]-5-(pyridin-2-ylsulfonylmethyl)-3,4-dihydro-2H-naphthalen-1-one]
5.5 nM | CC(C)C(Cn1ccnc1)Oc1ccc2c(c1CS(=O)(=O)c1ccccc1)CCCC2=O (stereo not shown) [Compound 63l, 6-[1-(1H-Imidazol-1-ylmethyl)-2-methylpropoxy]-5-[(phenylsulfonyl)methyl]-3,4-dihydro-1(2H)-naphthalenone]
1 nM | CCCCC(Cn1ccnc1)Oc1ccc2c(c1CS(=O)(=O)c1ccccc1)CCCC2=O (stereo not shown) [Compound 63m, 6-{[1-(1H-Imidazol-ylmethyl)pentyl]oxy}-5-[(phenylsulfonyl)methyl]-3,4-dihydro-1(2H)-naphthalenone]
7 nM | CCC(Cn1ccnc1)Oc1ccc2c(c1CS(=O)(=O)c1ccccc1)CCCC2=O (stereo not shown) [Compound 63n, 6-[1-(1H-Imidazol-1-ylmethyl)propoxy]-5-[(phenylsulfonyl)methyl]-3,4-dihydro-1(2H)-naphthalenone]
0.55 nM | O=C1CCCc2c1ccc(OC(Cn1ccnc1)c1cccs1)c2CS(=O)(=O)c1ccccn1 (stereo not shown) [Compound 63p, 6-(2-Imidazol-yl-1-thiophen-2-yl-ethoxy)-5-(pyridine-2-sulfonylmethyl)-3,4-dihydro-2H-naphthalen-1-one]
0.5 nM | O=C1CCCc2c1ccc(OC(Cn1ccnc1)c1nccs1)c2CS(=O)(=O)c1ccccn1 (stereo not shown) [Compound 63q, 6-(2-Imidazol-1-yl-1-thiazol-2-yl-ethoxy)-5-(pyridine-2-sulfonylmethyl)-3,4-dihydro-2H-naphthalen-1-one]
